Results reported in ChEMBL document CHEMBL1134165, “Anthraquinone-peptides as inhibitors of AP-1 transcription factor” (Bioorg Med Chem Lett, 2001).

Legend:
Assay type in all cases: nucleic-acid assay
Settings in all cases: Bos taurus
Nucleic Acid [1] = assay: Delta Tm is the difference between the melting temperature of calf thymus DNA in the presence and absence of 2-peptide conjugate at a 10:1 ratio of DNA/drug
Nucleic Acid [2] = assay: Percent maximum loss of ethidium bromide (EtBr) fluorescence bound to DNA (ratio 1:3) in presence of 2-peptide conjugate
Nucleic Acid [3] = assay: Delta Tm is the difference between the melting temperature of calf thymus DNA in the presence and absence of 2-peptide conjugate at a 10:1ratio of DNA/drug

| Substance | ΔTm (Nucleic Acid [1]) | Quench (Nucleic Acid [2]) | ΔTm (Nucleic Acid [3]) |
| --- | --- | --- | --- |
| H-AAKCRAA-OH | 6 |  |  |
| H-AKCRA-OH | 7.5 |  |  |
| H-AKCRDA-OH | 5.5 | 5% |  |
| H-AKCRDRA-OH | 10.3 |  |  |
| H-AKCRKA-OH | 7.3 |  |  |
| H-AKCRKRA-OH | 9 | 45% |  |
| H-AKSRA-OH | 5.5 |  |  |
| H-ARCKA-OH |  |  | 4.8 |
